Assay results taken from patent publication US12264173B2 (GILEAD SCIENCES, INC., priority 2020, dated 2025).
Read-outs that look alike come from different tables or passages of the source.

Columns and labels:
Format in all cases: cell-based
HRV16 = HRV16 HeLa EC50 (cytopathic effect in H1-HeLa cells)
How it was run: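 H1-HeLa cells seeded one day before, given 3-fold serial compound dilutions in triplicate just prior to infection with pre-titrated virus. Incubated 96 h at 33 °C/5% CO2; protection from cytopathic effect read as viability by CellTiter-Glo luminescence, normalised to infected untreated (0%) and uninfected (100%) controls.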

DENV2 replicon = assay: DENV-2 Huh-7 Rep EC50 (replicon luminescence)
How it was run: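 Huh-7 cells carrying a DENV2 replicon, 5,000 cells/well, were incubated with dosed compounds for 48 h at 37° C. EnduRen live-cell substrate was added 1.5 h before luminescence reading. EC50 came from dose-response against DMSO-only wells.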

RSV strain A2 = assay: microbe, parasite or virus in culture; conditions: Table 3, HEp-2 cells, RSV A2, 4 days, read-out: RSV HEp-2 EC50
How it was run: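 Cytopathic-effect protection assay: HEp-2 cells (50,000/mL) infected with pre-titered RSV A2 onto 3-fold serial compound dilutions, incubated 4 days at 37° C. Cell viability read by CellTiter-Glo luminescence; percent inhibition derived against 0% and 100% virus-inhibition controls.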

RSV A2 = assay: RSV NHBE EC50 (RSV A2 antiviral assay in NHBE cells); conditions: Table 3, NHBE cells, RSV A2, 4 days, read-out: RSV NHBE EC50
How it was run: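 Antiviral activity against RSV A2 was determined in NHBE cells used within 6 passages, with cell viability quantified by CellTiter-Glo after a 4-day infection.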

[1] = Table 3; H1-HeLa cells, 96 h; read-out: HRV16 HeLa EC50
[2] = Table 3, Huh-7 DENV2 replicon cells, 48 hours, read-out: DENV-2 REP Huh7 EC50
[3] = 96 h, Table 3; H1-HeLa cells, 96 h; read-out: HRV16 HeLa EC50
[4] = Dengue virus, DENV2, Huh-7, 48 h, read-out: DENV-2 REP Huh7 EC50
[5] = human respiratory syncytial virus, HEp-2, 96 h
[6] = human respiratory syncytial virus, NHBE, 96 h
[7] = Dengue virus, DENV2, Huh-7, 48 h, read-out: DENV-2 REP Huh7 EC50, Table 3, Huh-7 DENV2 replicon cells, 48 hours

SMILES: CC(=O)O[C@H]1[C@H](c2ccc3c(N)ncnn23)O[C@](C#N)(CO[P@@](=O)(N[C@@H](C)C(=O)OCC2CCN(CC(F)(F)F)CC2)Oc2ccccc2)[C@H]1OC(C)=O [Example 119]
- EC50 (HRV16; [1]): 1050 nM
- EC50 (DENV2 replicon; [2]): 71400 nM
- EC50 (RSV strain A2): 541 nM
- EC50 (RSV A2): 27 nM

SMILES: CCOC(=O)[C@H](C)N[P@](=O)(OC[C@@]1(C#N)O[C@@H](c2ccc3c(N)ncnn23)[C@H](OC(C)=O)[C@@H]1OC(C)=O)Oc1ccccc1 [Example 104, (2R,3S,4S,5S)-5-(4-aminopyrrolo[2,1-f][1,2,4]triazin-7-yl)-2-cyano-2-((((S)-(((S)-1-ethoxy-1-oxopropan-2-yl)amino)(phenoxy)phosphoryl)oxy)methyl) tetrahydrofuran-3,4-diyl diacetate]
- EC50 (HRV16; [3]): 703 nM
- EC50 (DENV2 replicon; [4]): 29100 nM
- EC50 (RSV strain A2; [5]): 147 nM
- EC50 (RSV A2; [6]): 32 nM

SMILES: COC(=O)[C@H](C)N[P@@](=O)(OC[C@@]1(C#N)O[C@@H](c2ccc3c(N)ncnn23)[C@H](OC(C)=O)[C@@H]1OC(C)=O)Oc1ccccc1 (single isomer, unassigned) [Example 130]
- EC50 (HRV16; [3]): 1780 nM
- EC50 (DENV2 replicon; [4]): 21000 nM
- EC50 (RSV strain A2; [5]): 198 nM
- EC50 (RSV A2; [6]): 59 nM

SMILES: C[C@H](NP(=O)(OC[C@@]1(C#N)O[C@@H](c2ccc3c(N)ncnn23)[C@H](OC(=O)C(C)(C)C)[C@@H]1OC(=O)C(C)(C)C)Oc1ccccc1)C(=O)OC1COC1 (stereo partly drawn) [Example 206, (2R,3S,4S,5S)-5-(4-aminopyrrolo[2,1-f][1,2,4]triazin-7-yl)-2-cyano-2-((((((S)-1-(oxetan-3-yloxy)-1-oxopropan-2-yl)amino)(phenoxy)phosphoryl)oxy)methyl) tetrahydrofuran-3,4-diyl bis(2,2-dimethylpropanoate)]
- EC50 (HRV16; [3]): 308 nM
- EC50 (DENV2 replicon; [4]): 7590 nM
- EC50 (RSV strain A2; [5]): 338 nM
- EC50 (RSV A2; [6]): 36 nM

SMILES: COC(=O)[C@H](C)NP(=O)(N[C@@H](C)C(=O)OC)OC[C@@]1(C#N)O[C@@H](c2ccc3c(NC(=O)C(C)C)ncnn23)[C@H](OC(=O)C(C)C)[C@@H]1OC(=O)C(C)C [Example 150, ((2R,3S,4R,5S)-5-(4-isobutyramidopyrrolo[2,1-f][1,2,4]triazin-7-yl)-2-cyano-3,4-diisobutylatetetrahydrofuran-2-yl)methyl bis-methyl L-alaninate phosphate]
- EC50 (HRV16; [3]): 3480 nM
- EC50 (DENV2 replicon; [7]): > 50000 nM
- EC50 (RSV strain A2; [5]): 1400 nM
- EC50 (RSV A2; [6]): 70 nM

SMILES: CC(C)C(=O)O[C@H]1[C@H](c2ccc3c(/N=C/N(C)C)ncnn23)O[C@](C#N)(COP(=O)(N[C@@H](C)C(=O)OC2CCOCC2)Oc2ccccc2)[C@H]1OC(=O)C(C)C (stereo partly drawn) [Example 218, (2R,3S,4S,5S)-2-cyano-5-(4-(((E)-(dimethylamino)methylene)amino)pyrrolo[2,1-f][1,2,4]triazin-7-yl)-2-((((((S)-1-oxo-1-((tetrahydro-2H-pyran-4-yl)oxy)propan-2-yl)amino)(phenoxy)phosphoryl)oxy)methyl) tetrahydrofuran-3,4-diyl bis(2-methylpropanoate)]
- EC50 (HRV16; [1]): 112 nM
- EC50 (DENV2 replicon; [2]): 5510 nM
- EC50 (RSV strain A2): 30 nM
- EC50 (RSV A2): 17 nM

SMILES: CCC(=O)O[C@H]1[C@H](c2ccc3c(N)ncnn23)O[C@](C#N)(COP(=O)(N[C@@H](C)C(=O)OC2CCN(CC)CC2(F)F)Oc2ccccc2)[C@H]1OC(=O)CC (stereo partly drawn) [Example 135, (2R,3S,4S,5S)-5-(4-Aminopyrrolo[2,1-f][1,2,4]triazin-7-yl)-2-cyano-2-((((((2S)-1-((1-ethyl-3,3-difluoropiperidin-4-yl)oxy)-1-oxopropan-2-yl)amino)(phenoxy)phosphoryl)oxy)methyl)tetrahydrofuran-3,4-diyl dipropionate]
- EC50 (HRV16; [3]): 1080 nM
- EC50 (DENV2 replicon; [4]): 30600 nM
- EC50 (RSV strain A2; [5]): 738 nM
- EC50 (RSV A2; [6]): 33 nM

SMILES: C[C@H](NP(=O)(OC[C@@]1(C#N)O[C@@H](c2ccc3c(N)ncnn23)[C@H](OC(=O)C(C)(C)C)[C@@H]1OC(=O)C(C)(C)C)Oc1ccccc1)C(=O)OC1CCOCC1 (single isomer, unassigned) [Example 173]
- EC50 (HRV16; [1]): 519 nM
- EC50 (DENV2 replicon; [2]): 16100 nM
- EC50 (RSV strain A2): 256 nM
- EC50 (RSV A2): 75 nM

SMILES: CO[C@H](C)C(=O)O[C@H]1[C@H](c2ccc3c(N)ncnn23)O[C@](C#N)(CO[P@@](=O)(N[C@@H](C)C(=O)OC(C)C)Oc2ccccc2)[C@H]1OC(=O)[C@@H](C)OC [Example 154, (2R,3S,4S,5S)-5-(4-aminopyrrolo[2,1-f][1,2,4]triazin-7-yl)-2-cyano-2-((((S)-(((S)-1-isopropoxy-1-oxopropan-2-yl)amino)(phenoxy)phosphoryl)oxy)methyl) tetrahydrofuran-3,4-diyl (2R,2′R)-bis(2-methoxypropanoate)]
- EC50 (HRV16; [3]): 874 nM
- EC50 (DENV2 replicon; [4]): 20500 nM
- EC50 (RSV strain A2; [5]): 185 nM
- EC50 (RSV A2; [6]): 114 nM

SMILES: CC(=O)O[C@H]1[C@H](c2ccc3c(N)ncnn23)O[C@](C#N)(COP(=O)(N[C@@H](C)C(=O)OC2CCCCC2)N[C@@H](C)C(=O)OC2CCCCC2)[C@H]1OC(C)=O [Example 121, (2R,3S,4S,5S)-5-(4-Aminopyrrolo[2,1-f][1,2,4]triazin-7-yl)-2-cyano-2-((((((S)-1-(cyclohexyloxy)-1-oxopropan-2-yl)amino)(((S)-1-cyclohexyloxy-1-oxopropan-2-yl)amino)phosphoryl)oxy)methyl)tetrahydrofuran-3,4-diyl diacetate]
- EC50 (HRV16; [3]): 6660 nM
- EC50 (DENV2 replicon; [7]): 44400 nM
- EC50 (RSV strain A2; [5]): 5450 nM
- EC50 (RSV A2; [6]): 498 nM

SMILES: CC(=O)O[C@H]1[C@H](c2ccc3c(N)ncnn23)O[C@](C#N)(CO[P@@](=O)(N[C@@H](C)C(=O)OCC2CCC2)Oc2ccccc2)[C@H]1OC(C)=O [Example 95]
- EC50 (HRV16; [1]): 429 nM
- EC50 (DENV2 replicon; [2]): 19800 nM
- EC50 (RSV strain A2): 90 nM
- EC50 (RSV A2): 20 nM

SMILES: CC(=O)O[C@H]1[C@H](c2ccc3c(N)ncnn23)O[C@](C#N)(COP(=O)(N[C@@H](C)C(=O)OC(C)C)N[C@@H](C)C(=O)OC(C)C)[C@H]1OC(C)=O [Example 133, ((2R,3S,4R,5S)-5-(4-aminopyrrolo[2,1-f][1,2,4]triazin-7-yl)-2-cyano-3,4-diacetatetetrahydrofuran-2-yl)methyl bis-isopropyl L-alaninate phosphate]
- EC50 (HRV16; [3]): > 48900 nM
- EC50 (DENV2 replicon; [7]): > 50000 nM
- EC50 (RSV strain A2; [5]): 18100 nM
- EC50 (RSV A2; [6]): > 4070 nM

SMILES: CCC(=O)O[C@H]1[C@H](c2ccc3c(N)ncnn23)O[C@](C#N)(CO[P@](=O)(N[C@@H](C)C(=O)OC)Oc2ccccc2)[C@H]1OC(=O)CC (single isomer, unassigned) [Example 142]
- EC50 (HRV16; [3]): 352 nM
- EC50 (DENV2 replicon; [4]): 11100 nM
- EC50 (RSV strain A2; [5]): 93 nM
- EC50 (RSV A2; [6]): 16 nM

SMILES: CO[C@H](C)C(=O)Nc1ncnn2c([C@@H]3O[C@](C#N)(CO[P@@](=O)(N[C@@H](C)C(=O)OC(C)C)Oc4ccccc4)[C@@H](OC(=O)[C@@H](C)OC)[C@H]3OC(=O)[C@@H](C)OC)ccc12 [Example 155, (2R,3S,4S,5S)-2-cyano-2-((((S)-(((S)-1-isopropoxy-1-oxopropan-2-yl)amino)(phenoxy)phosphoryl)oxy)methyl)-5-(4-((R)-2-methoxypropanamido)pyrrolo[2,1-f][1,2,4]triazin-7-yl)tetrahydrofuran-3,4-diyl (2R,2′R)-bis(2-methoxypropanoate)]
- EC50 (HRV16; [3]): 2680 nM
- EC50 (DENV2 replicon; [4]): 29200 nM
- EC50 (RSV strain A2; [5]): 437 nM
- EC50 (RSV A2; [6]): 294 nM

SMILES: CC(C)C(=O)O[C@H]1[C@H](c2ccc3c(N)ncnn23)O[C@](C#N)(COP(=O)(N[C@@H](C)C(=O)OCC2COC2)Oc2ccccc2)[C@H]1OC(=O)C(C)C (stereo partly drawn) [Example 200, (2R,3S,4S,5S)-5-(4-aminopyrrolo[2,1-f][1,2,4]triazin-7-yl)-2-cyano-2-((((((S)-1-(oxetan-3-ylmethoxy)-1-oxopropan-2-yl)amino)(phenoxy)phosphoryl)oxy)methyl) tetrahydrofuran-3,4-diyl bis(2-methylpropanoate)]
- EC50 (HRV16; [3]): 120 nM
- EC50 (DENV2 replicon; [4]): 2180 nM
- EC50 (RSV strain A2; [5]): 58 nM
- EC50 (RSV A2; [6]): 12 nM

SMILES: CC(C)CCC(=O)O[C@H]1[C@H](c2ccc3c(N)ncnn23)O[C@](C#N)(CO[P@@](=O)(N[C@@H](C)C(=O)OC2CCCCC2)Oc2ccccc2)[C@H]1OC(=O)CCC(C)C [Example 78, (2R,3S,4S,5S)-5-(4-aminopyrrolo[2,1-f][1,2,4]triazin-7-yl)-2-cyano-2-((((S)-(((S)-1-(cyclohexyloxy)-1-oxopropan-2-yl)amino)(phenoxy)phosphoryl)oxy)methyl) tetrahydrofuran-3,4-diyl bis(4-methylpentanoate)]
- EC50 (HRV16; [3]): 6520 nM
- EC50 (DENV2 replicon; [4]): 31800 nM
- EC50 (RSV strain A2; [5]): 1350 nM
- EC50 (RSV A2; [6]): 710 nM
